The data set is described as follows: in vitro. The settings on record: human, hela cells, % viability.

Here are results for 75 molecules from paper PMC12040169 (PLOS Biology, 2025).

In general, viability refers to a read-out of living cells in per cent, often relative to untreated cells. Turning to `CCc1ccc(/C=N/N2CCN(Cc3cccc4ccccc34)CC2)cc1` [CBK262986], the viability at 28.5 h, 10 µM is 104%.

On to `O=C1C(=CNCCC(c2ccccc2)c2ccccc2)C(=O)c2ccccc21` [CBK262987], for which the viability at 28.5 h, 10 µM was 97%.

As to `O=C(COc1cccc2ccccc12)NNC(=O)Cc1ccc(Cl)cc1` [CBK262988], the viability at 28.5 h, 10 µM came to 112%.

For the molecule `CCOC(=O)N1CCN(C(=O)COc2cccc3ccccc23)CC1` [CBK262992], the viability at 28.5 h, 10 µM was determined as 93%.

`Cc1cccc(C(=O)NNC(=O)COc2cccc3ccccc23)c1O` [CBK262993]: the viability at 28.5 h, 10 µM amounted to 87.7%.

Regarding `N/C(Cc1ccc([N+](=O)[O-])cc1)=N\OC(=O)COc1cccc2ccccc12` [CBK262994], the viability at 28.5 h, 10 µM was 92.8%.

For `O=C(CSc1nnc(-c2ccc(Cl)cc2)n1-c1ccccc1)N/N=C/c1ccco1` [CBK262996], the viability at 28.5 h, 10 µM amounted to 91.6%.

In the case of `NS(=O)(=O)c1ccc(CCNC=C2C(=O)c3ccccc3C2=O)cc1` [CBK262997], the viability at 28.5 h, 10 µM stood at 99%.

For `N/C(=N\OC(=O)COc1cccc2ccccc12)c1ccccn1` [CBK262999], the viability at 28.5 h, 10 µM stood at 96.2%.

With `O=C(CSc1nnc(-c2ccc(Cl)cc2)n1-c1ccccc1)N/N=C/c1ccccn1` [CBK263001], the viability at 28.5 h, 10 µM worked out at 94.6%.

Turning to `C(=N\N1CCN(Cc2cccc3ccccc23)CC1)/c1ccncc1` [CBK263003], the viability at 28.5 h, 10 µM amounted to 94.6%.

`NC(=O)C(=O)Nc1nc(-c2ccccc2)cs1` [CBK263005]: the viability at 28.5 h, 10 µM was determined as 98.4%.

Regarding `CC1=NN(c2ccc([N+](=O)[O-])cc2)C(=O)/C1=C\NCCc1ccc(S(N)(=O)=O)cc1` [CBK263006], the viability at 28.5 h, 10 µM is 92.6%.

`O=C1C(=CNCCN2CCOCC2)C(=O)c2ccccc21` [CBK263008]: the viability at 28.5 h, 10 µM is 109%.

With `Cc1ccc(/C(N)=N/OC(=O)COc2cccc3ccccc23)cc1` [CBK263009], the viability at 28.5 h, 10 µM is 98.5%.

As to `NNC(=O)CSc1nnc(-c2ccc(Cl)cc2)n1-c1ccccc1` [CBK263010], the viability at 28.5 h, 10 µM came out at 81.3%.

Regarding `Brc1cccc(/C=N/N2CCN(Cc3cccc4ccccc34)CC2)c1` [CBK263011], the viability at 28.5 h, 10 µM was found to be 98%.

For the molecule `Cc1cccc(N/C=C(/C#N)c2nc(-c3ccc4c(c3)OCO4)cs2)c1C` [CBK263013], the viability at 28.5 h, 10 µM came out at 96.4%.

Consider `O=C(COc1cccc2ccccc12)Nc1cccnc1` [CBK263015], for which the viability at 28.5 h, 10 µM was 115%.

For `COc1ccc(NC(=O)c2cc([N+](=O)[O-])ccc2N2CCN(C)CC2)cc1` [CBK263017], the viability at 28.5 h, 10 µM was 102%.

Consider `CCOC(=O)c1c(NC(=O)Cn2nc(C(F)(F)F)c(Cl)c2C)sc2c1CCCC2` [CBK263019], for which the viability at 28.5 h, 10 µM turned out to be 98.5%.

For the molecule `O=C(c1cccc(F)c1)N1CCN(Cc2ccccn2)CC1` [CBK263023], the viability at 28.5 h, 10 µM stood at 88.5%.

In the case of `Cc1cc(C)nc(Nc2ncc(O)n2-c2ccccc2C)n1` [CBK263024], the viability at 28.5 h, 10 µM is 91.2%.

Turning to `Cc1ccc(OCCOc2cccc(/C=N/n3cnnc3)c2)cc1` [CBK263028], the viability at 28.5 h, 10 µM was 111%.

Consider `CCC(Sc1nnc2c3ccccc3n(C)c2n1)C(=O)Nc1sc2c(c1C#N)CCCC2` (stereo not drawn) [CBK263031], for which the viability at 28.5 h, 10 µM was determined as 92.6%.

For `COc1cc(NC(=O)c2cc([N+](=O)[O-])ccc2N2CCN(C)CC2)c2ncccc2c1` [CBK263034], the viability at 28.5 h, 10 µM is 90%.

For `Cc1cc(C)c2c(c1)-c1c(ssc1=S)C(C)(C)N2C(=O)CSc1nncn1C` [CBK263035], the viability at 28.5 h, 10 µM was 106%.

For `COc1ccc(/C=N/NS(=O)(=O)c2ccc(C)cc2)cc1CSc1ccccn1` [CBK263036], the viability at 28.5 h, 10 µM was 96%.

Regarding `O=C(Cc1ccccc1)N1CCN(Cc2ccc3ccccc3c2)CC1` [CBK263037], the viability at 28.5 h, 10 µM is 112%.

With `Cc1cc(C)c2c(c1)-c1c(ssc1=S)C(C)(C)N2C(=O)CSc1nnc[nH]1` [CBK263038], the viability at 28.5 h, 10 µM turned out to be 88.5%.

As to `O=C(Cc1ccccc1)N1CCN(Cc2ccccn2)CC1` [CBK263039], the viability at 28.5 h, 10 µM came to 88.6%.

As to `C=CCn1c2ccccc2c2nnc(SC(CC)C(=O)N3c4ccccc4Sc4ccccc43)nc21` (stereo not drawn) [CBK263040], the viability at 28.5 h, 10 µM is 90.7%.

Consider `Cc1ccnc(N2C(=O)c3ccc(C(=O)c4ccc5c(c4)C(=O)N(c4cc(C)ccn4)C5=O)cc3C2=O)c1` [CBK263041], for which the viability at 28.5 h, 10 µM is 93.4%.

In the case of `CC1CCc2c(sc(NC(=O)COc3ccccc3)c2C(=O)Nc2ccccc2Cl)C1` (stereo not drawn) [CBK263044], the viability at 28.5 h, 10 µM worked out at 101%.

Consider `COc1cccc(C2Nc3ccc4ccccc4c3C3=C2C(=O)CC(C)(C)C3)c1OCC(=O)O` (stereo not drawn) [CBK263045], for which the viability at 28.5 h, 10 µM turned out to be 89.8%.

On to `COC(=O)c1c(NC(=O)Cn2nc([N+](=O)[O-])c(Cl)c2C)sc2c1CCCC2` [CBK263047], for which the viability at 28.5 h, 10 µM worked out at 83.9%.

For `CN1CCN(c2ccc(/C=c3\sc4nc5ccccc5n4c3=O)cc2[N+](=O)[O-])CC1` [CBK263048], the viability at 28.5 h, 10 µM came out at 89.3%.

Consider `O=C(O)CCSc1nnnn1C1CCCCC1` [CBK263052], for which the viability at 28.5 h, 10 µM was 88.9%.

For the molecule `O=C(NCCCn1ccnc1)c1cnn2c(C(F)(F)F)cc(-c3cccs3)nc12` [CBK263060], the viability at 28.5 h, 10 µM was determined as 88.7%.

Take `Cc1c(NC(=O)c2cn3c4c(c(N5CCN(C)CC5)c(F)cc4c2=O)OCN3C)c(=O)n(-c2ccccc2)n1C` [CBK263061]: the viability at 28.5 h, 10 µM worked out at 92.9%.

As for `O=C(NCCN1CCOCC1)c1cnn2c(-c3ccccc3)cc(-c3ccccc3)nc12` [CBK263062], the viability at 28.5 h, 10 µM is 94.5%.

On to `CC1CCc2c(sc(NC(=O)Cn3cnc([N+](=O)[O-])n3)c2C(N)=O)C1` (stereo not drawn) [CBK263064], for which the viability at 28.5 h, 10 µM is 91.3%.

On to `CCC(=O)Nc1ccc2oc(-c3cccc(C)c3)nc2c1` [CBK263065], for which the viability at 28.5 h, 10 µM came out at 89.6%.

For `Cc1cc(C)c2oc(-c3ccc(C)c(NC(=O)COc4ccccc4C)c3)nc2c1` [CBK263067], the viability at 28.5 h, 10 µM was determined as 103%.

Consider `CN(CP(=O)(O)CCc1ccccc1)S(C)(=O)=O` [CBK263068], for which the viability at 28.5 h, 10 µM was 95.1%.

Take `Cc1cccc(N2C(=O)c3ccc(C(=O)c4ccc5c(c4)C(=O)N(c4cccc(C)n4)C5=O)cc3C2=O)n1` [CBK263069]: the viability at 28.5 h, 10 µM is 87.8%.

Take `CCn1cc(C(=O)O)c(=O)c2cc(F)c(N(C)CCc3ccc(OC)c(OC)c3)cc21` [CBK263070]: the viability at 28.5 h, 10 µM was 97.1%.

With `Cc1c(N2C(=O)/C(=C3\C(=O)Nc4ccc([N+](=O)[O-])cc43)SC2=S)c(=O)n(-c2ccccc2)n1C` [CBK263071], the viability at 28.5 h, 10 µM stood at 115%.

Turning to `O=C(COc1ccc(Br)cc1)Nc1ccc(Cl)c(-c2nc3ccccc3[nH]2)c1` [CBK263075], the viability at 28.5 h, 10 µM worked out at 92%.

As for `COc1ccc(N2C(=O)CC(NNC(N)=O)C2=O)cc1` (stereo not drawn) [CBK263080], the viability at 28.5 h, 10 µM was 92.1%.

As for `Cc1ccc(C(=O)Cn2c3ccccc3n3ncnc23)cc1` [CBK263081], the viability at 28.5 h, 10 µM worked out at 99.6%.

In the case of `CC(=O)Oc1ccc(NC(=O)CC2Nc3cc(C)c(C)cc3NC2=O)cc1` (stereo not drawn) [CBK263088], the viability at 28.5 h, 10 µM turned out to be 89.5%.

Turning to `C(=C\CSc1nc2ccccc2[nH]1)/CSc1nc2ccccc2[nH]1` [CBK263090], the viability at 28.5 h, 10 µM was 107%.

Regarding `Nc1nnc(SC/C=C/CSc2nnc(N)s2)s1` [CBK263092], the viability at 28.5 h, 10 µM came out at 90.3%.

On to `O=C(CCNc1n[nH]c(=O)[nH]c1=O)N/N=C\c1ccccc1F` [CBK263093], for which the viability at 28.5 h, 10 µM was 86.3%.

Turning to `COc1cccc(N2C(=O)/C(=C/c3ccc(O)c(O)c3)SC2=S)c1` [CBK263096], the viability at 28.5 h, 10 µM worked out at 94.7%.

For `O=C(Cn1c2ccccc2n2ncnc12)c1ccc(-c2ccccc2)cc1` [CBK263097], the viability at 28.5 h, 10 µM came out at 106%.

With `Cc1ccc(S(=O)(=O)N/C(=N/C(C)C(=O)O)c2ccccc2)cc1` (stereo not drawn) [CBK263099], the viability at 28.5 h, 10 µM turned out to be 92.2%.

For `Cc1ccc(OCC(=O)O/N=C(\N)Cc2ccc([N+](=O)[O-])cc2)c(C)c1` [CBK263102], the viability at 28.5 h, 10 µM turned out to be 101%.

Regarding `NS(=O)(=O)c1ccc(CCNC(=O)c2ccc(C#CC3(O)CCCCC3)cc2)cc1` [CBK263104], the viability at 28.5 h, 10 µM is 93.9%.

In the case of `O=S(=O)(/N=C(/NS(=O)(=O)c1cccc2ccccc12)c1ccccc1)c1ccccc1` [CBK263105], the viability at 28.5 h, 10 µM worked out at 112%.

Take `COc1cccc(/C=N\NC(=O)CN2CCN(Cc3ccccc3)CC2)c1O` [CBK263106]: the viability at 28.5 h, 10 µM was 97.1%.

Consider `Cc1nc2n(/N=C/c3ccc([N+](=O)[O-])cc3)c3ccccc3n2c1C#N` [CBK263107], for which the viability at 28.5 h, 10 µM stood at 88.4%.

For `COc1cc(CN2CCN(Cc3cccc([N+](=O)[O-])c3)CC2)c([N+](=O)[O-])cc1OC` [CBK263111], the viability at 28.5 h, 10 µM came to 99.9%.

As to `CC1(C)CN=C(N2CCN(c3c4c(c(C#N)c5nc6ccccc6n35)CCC4)CC2)S1` [CBK263113], the viability at 28.5 h, 10 µM was 103%.

With `Cc1ccc(C(=O)N/C(=C\c2cccc([N+](=O)[O-])c2)c2n[nH]c(=S)[nH]2)cc1` [CBK263114], the viability at 28.5 h, 10 µM was 87%.

With `CC(=O)NS(=O)(=O)c1ccc(NC(=N)Nc2nc(C)cc(C)n2)cc1` [CBK263117C], the viability at 28.5 h, 10 µM amounted to 90.1%.

For the molecule `O=C(O)/C=C/c1cn(-c2ccccc2)nc1-c1cccs1` [CBK263119], the viability at 28.5 h, 10 µM amounted to 102%.

As for `O=C(CCN1C(=O)c2cccc([N+](=O)[O-])c2C1=O)Nc1ccccc1Cl` [CBK263121], the viability at 28.5 h, 10 µM amounted to 91.6%.

For `N#Cc1c2c(c(Nc3ccc(C4CCCCC4)cc3)n3c1nc1ccccc13)CCC2` [CBK263122], the viability at 28.5 h, 10 µM amounted to 95.1%.

For `Cc1c(Cc2ccccc2)c(N2CCN(C3c4ccccc4-c4ccccc43)CC2)n2c(nc3ccccc32)c1C#N` [CBK263124], the viability at 28.5 h, 10 µM was found to be 111%.

Consider `O=C(Nc1cccc(-c2nc3ncccc3o2)c1)c1cccc(OCc2ccccc2)c1` [CBK263126], for which the viability at 28.5 h, 10 µM was 86.2%.

For the molecule `Cc1cc(I)ccc1NC(=O)CCN1C(=O)c2cccc([N+](=O)[O-])c2C1=O` [CBK263128], the viability at 28.5 h, 10 µM stood at 88.3%.

As to `O=C(Nc1cccnc1)C1c2ccccc2Oc2ccccc21` [CBK263129], the viability at 28.5 h, 10 µM was determined as 98.6%.

Turning to `CCOC(=O)CN1C(c2ccccc2O)Nc2ccc(Br)cc2C1c1ccccc1` (stereo not drawn) [CBK263130], the viability at 28.5 h, 10 µM worked out at 90.5%.
